Test results as given in ChEMBL document CHEMBL1201862, “PubChem BioAssay data set” (2004).
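Interpolation was linear, between the two tested concentrations surrounding the appropriate level; five concentrations were tested over 48 hours in 96-well plates. Here, GI50 denotes the concentration required for 50% inhibition of growth.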 Calls of active or inactive are those of the source. No stated cut-off is given here; in the data, active = GI50 up to about 1.1 µM and inactive = higher.

Experiments:
Assay in all cases: NCI-60 cell line screen, 48 h
SR = tested on: SR
RPMI-8226 = tested on: RPMI-8226
IGROV-1 = tested on: IGROV-1
UACC-62 = tested on: UACC-62
CAKI-1 = tested on: CAKI-1
SW-620 = tested on: SW-620
OVCAR-3 = tested on: OVCAR-3
HOP-62 = tested on: HOP-62
HT-29 = tested on: HT-29
A498 = tested on: A498
MOLT-4 = tested on: MOLT-4
NCI-H460 = tested on: NCI-H460
SK-OV-3 = tested on: SK-OV-3
M14 = tested on: M14
HCC 2998 = tested on: HCC 2998
ACHN = tested on: ACHN
786-0 = tested on: 786-0
UO-31 = tested on: UO-31
OVCAR-4 = tested on: OVCAR-4

COc1ccc(CC2NC(=O)/C=C/CC(C(C)C3OC3c3ccccc3)OC(=O)C(CC(C)C)OC(=O)C(C)CNC2=O)cc1Cl (configuration not stated)
GI50 (SR): < 1e-05 µM (active)
GI50 (RPMI-8226): 3.62e-05 µM (active)
GI50 (IGROV-1): 2.36e-05 µM (active)
GI50 (UACC-62): 1.1e-05 µM (active)
GI50 (CAKI-1): 1.01e-05 µM (active)
GI50 (SW-620): 1.36e-05 µM (active)
GI50 (OVCAR-3): < 1e-05 µM (active)
GI50 (HOP-62): 1.76e-05 µM (active)
GI50 (HT-29): < 1e-05 µM (active)
GI50 (A498): < 1e-05 µM (active)
GI50 (MOLT-4): 3.4e-05 µM (active)
GI50 (NCI-H460): < 1e-05 µM (active)
GI50 (SK-OV-3): 6.68e-05 µM (active)
GI50 (M14): 1.04e-05 µM (active)
GI50 (HCC 2998): 3.07e-05 µM (active)
GI50 (ACHN): 2.81e-05 µM (active)
GI50 (786-0): < 1e-05 µM (active)

CC(=O)OCC1OC(NC(=S)N/N=C2\CC(c3ccccc3)Oc3ccccc32)C(OC(C)=O)C(OC(C)=O)C1OC(C)=O (configuration not stated)
GI50 (SR): > 100 µM (inactive)
GI50 (RPMI-8226): > 100 µM (inactive)
GI50 (IGROV-1): > 100 µM (inactive)
GI50 (UACC-62): > 100 µM (inactive)
GI50 (CAKI-1): > 100 µM (inactive)
GI50 (SW-620): > 100 µM (inactive)
GI50 (OVCAR-3): > 100 µM (inactive)
GI50 (HOP-62): > 100 µM (inactive)
GI50 (HT-29): > 100 µM (inactive)
GI50 (A498): > 100 µM (inactive)
GI50 (MOLT-4): > 100 µM (inactive)
GI50 (NCI-H460): > 100 µM (inactive)
GI50 (UO-31): > 100 µM (inactive)
GI50 (SK-OV-3): > 100 µM (inactive)
GI50 (OVCAR-4): > 100 µM (inactive)
GI50 (M14): > 100 µM (inactive)
GI50 (HCC 2998): > 100 µM (inactive)
GI50 (ACHN): > 100 µM (inactive)
GI50 (786-0): > 100 µM (inactive)

Cc1nn(C(=O)CC(=O)Nc2ccccc2Cl)c(C)c1/N=N/c1ccccc1Cl
GI50 (SR): > 100 µM (inactive)
GI50 (IGROV-1): > 100 µM (inactive)
GI50 (UACC-62): > 100 µM (inactive)
GI50 (CAKI-1): > 100 µM (inactive)
GI50 (SW-620): > 100 µM (inactive)
GI50 (OVCAR-3): > 100 µM (inactive)
GI50 (HOP-62): > 100 µM (inactive)
GI50 (HT-29): > 100 µM (inactive)
GI50 (A498): > 100 µM (inactive)
GI50 (MOLT-4): > 100 µM (inactive)
GI50 (NCI-H460): > 100 µM (inactive)
GI50 (UO-31): > 100 µM (inactive)
GI50 (SK-OV-3): > 100 µM (inactive)
GI50 (OVCAR-4): > 100 µM (inactive)
GI50 (M14): > 100 µM (inactive)
GI50 (HCC 2998): > 100 µM (inactive)
GI50 (ACHN): > 100 µM (inactive)
GI50 (786-0): > 100 µM (inactive)

O=C(CC(=O)C(=O)CC(=O)OCc1ccccc1)OCc1ccccc1
GI50 (SR): 70.8 µM (inactive)
GI50 (RPMI-8226): 45.8 µM (inactive)
GI50 (IGROV-1): 78.3 µM (inactive)
GI50 (UACC-62): 84.9 µM (inactive)
GI50 (CAKI-1): > 100 µM (inactive)
GI50 (SW-620): 88.9 µM (inactive)
GI50 (HOP-62): 56.2 µM (inactive)
GI50 (HT-29): > 100 µM (inactive)
GI50 (A498): > 100 µM (inactive)
GI50 (MOLT-4): 64.3 µM (inactive)
GI50 (UO-31): 27.3 µM (inactive)
GI50 (SK-OV-3): > 100 µM (inactive)
GI50 (OVCAR-4): 50.5 µM (inactive)
GI50 (M14): > 100 µM (inactive)
GI50 (HCC 2998): > 100 µM (inactive)
GI50 (786-0): > 100 µM (inactive)

CC(Cl)(/C=C/Cl)C(Cl)/C=C/C(Cl)(CCl)CBr (configuration not stated)
GI50 (SR): 0.191 µM (active)
GI50 (RPMI-8226): 1.66 µM (inactive)
GI50 (IGROV-1): 8.71 µM (inactive)
GI50 (UACC-62): 1.68 µM (inactive)
GI50 (CAKI-1): 12.2 µM (inactive)
GI50 (SW-620): 2.15 µM (inactive)
GI50 (OVCAR-3): 12.5 µM (inactive)
GI50 (HOP-62): 24.3 µM (inactive)
GI50 (HT-29): 1.69 µM (inactive)
GI50 (A498): 13.5 µM (inactive)
GI50 (MOLT-4): 0.373 µM (active)
GI50 (NCI-H460): 3.15 µM (inactive)
GI50 (UO-31): 14.5 µM (inactive)
GI50 (SK-OV-3): 17.1 µM (inactive)
GI50 (OVCAR-4): 3.05 µM (inactive)
GI50 (M14): 2.54 µM (inactive)
GI50 (HCC 2998): 14.6 µM (inactive)
GI50 (ACHN): 5.51 µM (inactive)
GI50 (786-0): 2.9 µM (inactive)

CCCS(=O)(=O)/C(=C(\c1ccc(Br)cc1)S(=O)(=O)CCC)c1ccc(Br)cc1
GI50 (SR): > 10 µM (inactive)
GI50 (RPMI-8226): > 10 µM (inactive)
GI50 (IGROV-1): > 10 µM (inactive)
GI50 (UACC-62): > 10 µM (inactive)
GI50 (CAKI-1): > 10 µM (inactive)
GI50 (SW-620): > 10 µM (inactive)
GI50 (OVCAR-3): > 10 µM (inactive)
GI50 (HOP-62): > 10 µM (inactive)
GI50 (HT-29): > 10 µM (inactive)
GI50 (A498): > 10 µM (inactive)
GI50 (MOLT-4): > 10 µM (inactive)
GI50 (NCI-H460): > 10 µM (inactive)
GI50 (UO-31): > 10 µM (inactive)
GI50 (SK-OV-3): > 10 µM (inactive)
GI50 (OVCAR-4): > 10 µM (inactive)
GI50 (M14): > 10 µM (inactive)
GI50 (HCC 2998): > 10 µM (inactive)
GI50 (ACHN): > 10 µM (inactive)
GI50 (786-0): > 10 µM (inactive)

COc1cc(C2CC(C)(Nc3ccccc3)Oc3cc4c(cc32)OCO4)cc(OC)c1OC (configuration not stated)
GI50 (SR): 0.239 µM (active)
GI50 (RPMI-8226): 0.263 µM (active)
GI50 (IGROV-1): 0.386 µM (active)
GI50 (UACC-62): 0.203 µM (active)
GI50 (CAKI-1): 0.478 µM (active)
GI50 (SW-620): 0.234 µM (active)
GI50 (OVCAR-3): 0.219 µM (active)
GI50 (HOP-62): 0.192 µM (active)
GI50 (HT-29): 0.182 µM (active)
GI50 (A498): 2.97 µM (inactive)
GI50 (MOLT-4): 0.535 µM (active)
GI50 (NCI-H460): 0.327 µM (active)
GI50 (UO-31): 1.2 µM (inactive)
GI50 (SK-OV-3): 0.394 µM (active)
GI50 (OVCAR-4): 1.84 µM (inactive)
GI50 (M14): 0.223 µM (active)
GI50 (HCC 2998): 0.729 µM (active)
GI50 (ACHN): 0.499 µM (active)
GI50 (786-0): 0.298 µM (active)
